Columns and labels:
C57BL/6 mice = assay: Mortality after MPTP intoxication; format: in vivo; details: 24 hours after treatment by the MPTP
Source text: Brain samples were collected after mice anesthesia and sacrifice.

[1] = tested on: tyrosine hydroxylase expression; assay: MPTP mouse model: tyrosine hydroxylase ELISA assay of total brain protein extract; details: for Mean expression of tyrosine hydroxylase: ELISA, control 0.275
monoamine oxidase = assay: MPTP mouse model: monoamine oxidase fluorometric assay of total brain protein extract; details: for Monoamine oxidase fluorometric assay: total brain protein extract, control = 100
[2] = tested on: tyrosine hydroxylase expression; assay: MPTP mouse model: tyrosine hydroxylase immunohistochemistry on coronal brain sections; format: in vivo, C57BL/6 mice; details: MPTP + masitinib 2×5 mg/kg; 5 μm-thick coronal sections
[3] = tested on: human cord blood mast cells; details: cited from earlier work

basal expression of tyrosine hydroxylase compared with control ([1]; masitinib alone, no MPTP)	activity of monoamine oxidase with respect to the control group (monoamine oxidase; MPTP in combination with masitinib)	Compound	mortality (C57BL/6 mice)	Mean expression of tyrosine hydroxylase ([1]; MPTP alone (4 × 20 mg/kg), solvent treated)	Monoamine oxidase fluorometric assay (monoamine oxidase; MPTP alone)	attenuation of tyrosine hydroxylase destruction by immunohistochemistry [2]	FccRI-mediated degranulation of human cord blood mast cells [3]	decrease of tyrosine hydroxylase expression in response to MPTP treatment ([1]; MPTP + masitinib 2×5 mg/kg cohort)	Mean expression of tyrosine hydroxylase ([1]; MPTP + masitinib 2 × 5 mg/kg per os, day -7 to day 7)	Mean expression of tyrosine hydroxylase ([1]; masitinib alone 2 × 30 mg/kg per os, no MPTP)	Monoamine oxidase fluorometric assay (monoamine oxidase; MPTP + masitinib 2 × 5 mg/kg)
		CN1CC=C(c2ccccc2)CC1 [MPTP, 1-methyl-4-phenyl-1,2,3,6-tetrahydropyridine, reference compound]	No mortality	0.175	108						
did not modify significantly	maintained	Cc1ccc(NC(=O)c2ccc(CN3CCN(C)CC3)cc2)cc1Nc1nc(-c2cccnc2)cs1 [Masitinib, 4-(4-methylpiperazin-1-ylmethyl)-N-[4-methyl-3-(4-pyridin-3ylthiazol-2-ylamino)phenyl]benzamide]				reproducible	inhibition	significantly diminished decrease	0.215	0.225	115
